# Legend:
# [1] = type: in vivo; settings: SD rats; for effect on the intestinal absorption of capecitabine: COS 250 mg/kg
# P-gp [2] = target: T1, P-gp (Homo sapiens, UniProt P08183); assay: SPR affinity to P-gp in SMALP-MCF-7/ADR liposomes; type: binding
# paraquat poisoning [3] = type: in vivo, SD rats; settings: for survival rate: PQ-intoxicated rats, oral 2 h post-intoxication, over 15 days
# paraquat poisoning [4] = assay: Survival of paraquat-poisoned abcb1; type: in vivo; settings: PQ-intoxicated abcb1(-/-) mice, 15 days
# [5] = Intestinal transport rate, everted intestinal sac model; type: in vitro ADME, SD rats; settings: pre-incubation 40 min
# [6] = system: tight junctions between intestinal epithelial cells; assay: TEM observation of tight junctions after oral GlcN; type: in vivo, SD rats; settings: GlcN 250 mg/kg, 20 min
# Caco-2 cells [7] = assay: Cell viability, Cell Counting Kit-8; type: cell-based; settings: 48 h
# P-gp [8] = target: T1, P-gp; assay: Efflux of Rh123 from preloaded Caco-2 cells; type: cell-based; settings: Rh123-preloaded Caco-2 cells, vs control
# P-gp [9] = target: T1, P-gp; assay: Cellular uptake of Rh123 in P-gp silenced; type: cell-based; settings: P-gp knockdown Caco-2 cells, various concentrations
# [10] = Pharmacokinetics of digoxin in wild-type FVB mice with or without GlcN; type: in vivo
# [11] = Pharmacokinetics of digoxin in abcb1; type: in vivo; settings: abcb1(-/-) mice
# P-gp [12] = target: T1, P-gp; type: biochemical; settings: GlcN 10 mM, 5 min pre-incubation
# P-gp-mediated ATPase = P-gp-mediated ATPase (Homo sapiens, UniProt P08183); assay: P-gp-mediated ATPase activity in Caco-2 cells; type: cell-based; settings: 10 μM GlcN
# Chain of P-gp-mediated ATPase (P08183 whole entry): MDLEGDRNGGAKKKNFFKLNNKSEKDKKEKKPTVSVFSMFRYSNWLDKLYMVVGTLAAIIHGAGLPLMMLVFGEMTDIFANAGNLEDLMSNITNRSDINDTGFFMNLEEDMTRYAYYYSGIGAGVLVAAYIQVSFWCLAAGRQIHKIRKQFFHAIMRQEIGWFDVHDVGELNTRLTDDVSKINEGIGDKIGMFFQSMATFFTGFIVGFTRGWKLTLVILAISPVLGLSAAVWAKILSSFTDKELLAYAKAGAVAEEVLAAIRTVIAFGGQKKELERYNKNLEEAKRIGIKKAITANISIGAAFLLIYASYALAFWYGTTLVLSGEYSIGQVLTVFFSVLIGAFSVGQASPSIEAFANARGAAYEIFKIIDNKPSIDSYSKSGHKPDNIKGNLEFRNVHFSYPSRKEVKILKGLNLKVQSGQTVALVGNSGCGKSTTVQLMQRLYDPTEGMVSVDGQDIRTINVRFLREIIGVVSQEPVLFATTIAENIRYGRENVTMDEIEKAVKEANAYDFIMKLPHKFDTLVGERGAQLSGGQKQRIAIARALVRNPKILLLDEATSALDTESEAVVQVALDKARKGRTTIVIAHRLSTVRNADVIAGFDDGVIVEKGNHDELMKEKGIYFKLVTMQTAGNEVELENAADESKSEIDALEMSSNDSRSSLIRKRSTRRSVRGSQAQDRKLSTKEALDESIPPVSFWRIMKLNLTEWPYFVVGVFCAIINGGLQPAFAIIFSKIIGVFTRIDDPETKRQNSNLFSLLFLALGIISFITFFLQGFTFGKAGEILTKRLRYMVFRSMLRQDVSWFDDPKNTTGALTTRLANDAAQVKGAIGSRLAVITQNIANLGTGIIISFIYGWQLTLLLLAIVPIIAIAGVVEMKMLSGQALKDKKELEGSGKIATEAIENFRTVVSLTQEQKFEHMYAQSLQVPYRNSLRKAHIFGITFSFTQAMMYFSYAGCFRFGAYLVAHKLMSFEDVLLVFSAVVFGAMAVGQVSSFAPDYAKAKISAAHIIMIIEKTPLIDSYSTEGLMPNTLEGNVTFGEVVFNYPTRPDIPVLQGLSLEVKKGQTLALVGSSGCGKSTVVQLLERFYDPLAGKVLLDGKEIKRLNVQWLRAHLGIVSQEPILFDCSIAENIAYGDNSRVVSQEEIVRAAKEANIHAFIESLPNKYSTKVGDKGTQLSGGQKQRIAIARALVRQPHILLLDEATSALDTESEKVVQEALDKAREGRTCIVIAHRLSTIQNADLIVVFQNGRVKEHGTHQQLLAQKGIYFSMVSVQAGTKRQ
# Caco-2 cells [13] = type: cell-based
# A549 cells = type: cell-based
# P-gp [14] = target: T1, P-gp; assay: Transport of paraquat in P-gp recombinant inside-out vesicle model; type: biochemical; settings: P-gp inside-out vesicles
# [15] = type: in vivo, SD rats; settings: Sprague-Dawley, rat, oral
# [16] = type: in vivo; settings: FVB mice, GlcN 500 mg/kg
# [17] = type: in vivo; settings: abcb1(-/-) mice, GlcN 500 mg/kg
# paraquat poisoning [18] = assay: Survival of paraquat-poisoned FVB mice; type: in vivo, wt FVB mice; settings: PQ-intoxicated FVB mice
# [19] = Molar osmotic pressure of solution after adding GlcN or Glu; type: physicochemical; settings: GlcN concentrations below 20 mM
# CYP3A4 = CYP3A4 (Homo sapiens, UniProt P08684); settings: 30 min incubation, 100 μM GlcN
# Chain of CYP3A4 (P08684 whole entry): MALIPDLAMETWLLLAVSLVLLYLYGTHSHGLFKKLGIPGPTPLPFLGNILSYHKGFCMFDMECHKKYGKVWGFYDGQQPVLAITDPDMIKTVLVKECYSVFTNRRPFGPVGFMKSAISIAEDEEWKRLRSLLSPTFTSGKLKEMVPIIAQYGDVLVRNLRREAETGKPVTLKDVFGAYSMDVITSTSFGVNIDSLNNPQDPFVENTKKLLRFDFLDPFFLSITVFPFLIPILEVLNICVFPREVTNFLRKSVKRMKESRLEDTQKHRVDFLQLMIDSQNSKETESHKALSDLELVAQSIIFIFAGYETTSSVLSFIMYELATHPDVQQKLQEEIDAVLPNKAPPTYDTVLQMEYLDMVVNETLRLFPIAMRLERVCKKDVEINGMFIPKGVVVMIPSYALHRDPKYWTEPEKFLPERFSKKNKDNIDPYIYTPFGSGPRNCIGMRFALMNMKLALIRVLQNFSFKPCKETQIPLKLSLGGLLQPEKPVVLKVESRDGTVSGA
# T1 sequence (P08183 whole entry): as the sequence (P08183 whole entry) above
structure (smiles),measurement,setting,value
"N[C@H]1[C@H](O[C@H]2[C@H](O)[C@@H](N)C(O)O[C@@H]2CO)O[C@H](CO)[C@@H](O)[C@@H]1O (some centres unmarked) [COS2, chitobiose]",effect on the intestinal absorption of capecitabine,[1],inhibited
"N[C@H]1[C@H](O[C@H]2[C@H](O)[C@@H](N)[C@H](O[C@H]3[C@H](O)[C@@H](N)C(O)O[C@@H]3CO)O[C@@H]2CO)O[C@H](CO)[C@@H](O)[C@@H]1O (some centres unmarked) [COS3, chitotriose]",Kd,P-gp [2],276 µM
same,"AUC of capecitabine, of the control group",[1],12.65%
same,effect on the intestinal absorption of capecitabine,[1],inhibited
"N[C@H]1[C@H](O[C@H]2[C@H](O)[C@@H](N)[C@H](O[C@H]3[C@H](O)[C@@H](N)[C@H](O[C@H]4[C@H](O)[C@@H](N)[C@H](O[C@H]5[C@H](O)[C@@H](N)C(O)O[C@@H]5CO)O[C@@H]4CO)O[C@@H]3CO)O[C@@H]2CO)O[C@H](CO)[C@@H](O)[C@@H]1O (some centres unmarked) [COS5, chitopentaose]",effect on the intestinal absorption of capecitabine,[1],facilitated
"C[C@@H]1C[C@H]2[C@@H]3CCC4=CC(=O)C=C[C@]4(C)[C@@]3(F)[C@@H](O)C[C@]2(C)[C@@]1(O)C(=O)CO [DEX, dexamethasone, reference compound]",survival rate,paraquat poisoning [3],30%
same,effect on survival,paraquat poisoning [4],does not improve the survival rate within 15 days
"N[C@H]1C(O)O[C@H](CO)[C@@H](O)[C@@H]1O (some centres unmarked) [GlcN, Glucosamine]",inhibitory effect on intestinal drug transport after prolonged pre-incubation,[5],reverses the inhibitory effect
same,tight junctions between intestinal epithelial cells before and after oral GlcN,[6],remained unchanged
same,concentrations that did not induce significant cytotoxicity,Caco-2 cells [7],below 50 mM
same,effect on fluorescence intensity of intracellular Rh123 / Rh123 transport,P-gp [8],notably reduced
same,effect on intracellular accumulation level of Rh123,P-gp [9],hardly had any effect
same,effect on oral absorption of digoxin,[10],significantly inhibited
same,effect on in vivo pharmacokinetic behavior of digoxin,[11],does not affect
same,transport activity relative to the control group,P-gp [12],~ 1.48 times
same,ATPase activity compared to baseline at peak effect,P-gp-mediated ATPase,doubled
same,effect on resistance to paraquat (cell viability),Caco-2 cells [13],significantly enhanced the resistance
same,effect on resistance to paraquat (cell viability),A549 cells,significantly enhanced the resistance
same,effect on paraquat transport,P-gp [14],enhanced its transport
same,reduction of PQ peak plasma concentration and bioavailability,[15],~ 60%
same,effect on PQ absorption,[16],significantly reduced
same,effect on PQ pharmacokinetics,[17],no substantial effect
same,survival rate,paraquat poisoning [3],60%
same,effect on survival rate,paraquat poisoning [18],improves the survival rate
same,effect on survival,paraquat poisoning [4],fails to significantly rescue
same,ΔOsmolality,[19],below 20 mOsmol/kg
same,boost of CYP3A4 enzyme activity compared to the control group,CYP3A4,301%
"C[n+]1ccc(-c2cc[n+](C)cc2)cc1 [PQ, N,N’-dimethyl-4,4’-bipyridinium]",time within which all poisoned rats without administration died,"paraquat poisoning [3]; paraquat 350 mg/kg oral, SD rats",≤ 6 days
"OC[C@H]1OC(O)[C@H](O)[C@@H](O)[C@@H]1O (some centres unmarked) [glucose, reference compound]",effect on fluorescence intensity of intracellular Rh123 / Rh123 transport,P-gp [8],no discernible effect

# Source: paper PMC12222954 (Nature Communications, 2025)
